We go through 1 compound from patent US6589992B2, “Inhibiting collagen-induced platelet aggregation” (Parker Hughes Institute, priority 1999, dated 2003).

The experiment relates to ICR mice. Kind of experiment: Thromboplastin-induced fatal thromboembolism in mice. It counts as in vivo. Conditions: N=10. As for the experimental part:
The mice were challenged with 25 mg/kg thromboplastin (Sigma, St. Louis, Mo.) via a bolus i.v. injection in to the tail vein as previously described (Sato et al., 1998). At the time of thromboembolism-related death, after the thromboplastin injection or elective sacrifice at 48 hours using ketamine/xylazine, all mice were perfused with PBS followed by 4% phosphate buffered formalin. PBS and formalin were pumped through the left ventricle of the heart and allowed to exit through a 3 mm incision through the anterior wall of the right ventricle.

Regarding `CC(=O)CC(c1ccccc1)c1c(O)c2ccccc2oc1=O` (centres unmarked) [warfarin, reference compound], the “probability of event-free survival after thromboplastin challenge” value (warfarin 3 mg/kg i.p. 18 hours prior) worked out at 10±9%. The median survival time (warfarin 3 mg/kg) is recorded as 5.3 min.
